Measured values published in patent US9162979B2, “1,5-Diary1-2-alkylpyrrole-3-substituted nitro esters, selective COX-2 inhibitors and nitric oxide donors” (ROTTAPHARM BIOTECH S.R.L., priority 2010, dated 2015).
Where a name gives a salt, the structure may show the parent alone.

Legend:
[1] = molecular target: COX-2 (Mus musculus (Mouse), UniProt Q05769); experiment: Evaluation of COX-2 activity: PGE2 production in LPS-stimulated J774 cells; format: cell-based, murine; conditions: J774 cells stimulated 24 hours with LPS 10 μg/mL; PGE2 by radio-immunological assay; read-out: Cyclooxygenase inhibition COX-2 IC50
COX-2, sequence (Q05769 18-604): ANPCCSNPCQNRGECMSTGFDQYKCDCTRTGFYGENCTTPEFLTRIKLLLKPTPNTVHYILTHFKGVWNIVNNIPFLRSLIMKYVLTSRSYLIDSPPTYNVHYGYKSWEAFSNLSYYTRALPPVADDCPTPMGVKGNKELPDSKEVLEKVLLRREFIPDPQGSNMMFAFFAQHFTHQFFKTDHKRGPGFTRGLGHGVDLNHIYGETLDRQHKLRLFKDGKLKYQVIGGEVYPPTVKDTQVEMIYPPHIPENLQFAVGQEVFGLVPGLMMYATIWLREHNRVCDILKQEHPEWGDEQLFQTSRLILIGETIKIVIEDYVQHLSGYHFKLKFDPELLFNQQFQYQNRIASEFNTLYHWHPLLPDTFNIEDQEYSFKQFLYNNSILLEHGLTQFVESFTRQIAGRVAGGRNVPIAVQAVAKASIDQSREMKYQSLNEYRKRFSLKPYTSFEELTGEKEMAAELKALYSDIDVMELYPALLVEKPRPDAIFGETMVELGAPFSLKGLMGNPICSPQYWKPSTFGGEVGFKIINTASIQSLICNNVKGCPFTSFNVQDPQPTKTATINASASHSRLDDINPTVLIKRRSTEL
Experimental: The murine monocyte/macrophage cell line J774 is grown in Dulbecco's modified Eagle's medium (DMEM), enriched with glutamine (2 mM), HEPES (25 mM), penicillin (100 u/mL), streptomycin (100 μg/mL), 10% of fetal bovine serum (FBS) and 1.2% of sodium pyruvate. […] Just before the experiments, the culture medium is replaced with fresh medium without FBS to avoid interference during the radio-immunological phase and the cells are stimulated as described below.
The supernatants are collected for evaluating, by means of radio-immunological assays, the amount of PGE2 produced.
In each group of experiments, wells were used in triplicate for the different treatment conditions. […] The data were evaluated using the sigmoidal dose-response equation (variable slope) (GraphPad software). IC50 and the 95% precision intervals were calculated with the program GraphPad Instat (GraphPad software).

[2] = tested on: isolated rings of thoracic aorta; experiment: Evaluation of release of NO: vasorelaxing activity on endothelium-denuded aortic rings contracted with KCl; parameters: species or system rat; conditions: Rattus norvegicus; relative to contractile tone induced by 20 mM KCl; 1 nM-10 μM; read-out: NO release properties Emax (maximum vasorelaxing effect)
Experimental: The activity of the compounds was evaluated on isolated rings of thoracic aorta of normotensive male Wistar rats (250-350 g). After light anaesthesia with ether, the rats were sacrificed by cervical dislocation and exsanguination. The aortas were immediately excised, extraneous tissues were removed and the endothelial layer was removed by gently rubbing the surface with a hypodermic needle. Rings of aorta with a width of 5 mm were suspended, with a preload of 2 g, in 20-ml organ baths, containing a solution of “Tyrode” (composition of the saline solution in mM: NaCl 136.8; KCl 2.95; CaCl2 1.80; MgSO4 1.05; NaH2PO4 0.41; NaHCO3 11.9; glucose 5.5), thermostatically controlled at 37° C. and kept in an atmosphere of O2 (95%) and CO2 (5%). […] were recorded by means of an isometric transducer (FTO3 Erba), connected to a microdynamometer (Buxco Electronics).
60 minutes after preparation, removal of the endothelium was confirmed by acetylcholine (ACH) (10 μM) treatment of the vascular rings pre-contracted with KCl (20 mM). Relaxation of less than 10% of the contraction induced by KCl was considered as representative of acceptable removal of the endothelial layer, whereas organs displaying relaxation ≧10% were discarded. 40 minutes after confirmation of complete removal of the endothelium, the aortas were contracted by treatment with a single dose of KCl (20 mM) and after the contraction reached a stable plateau, increasing cumulative concentrations (with progressive increments of 3 times) of the test compounds (1 nM-10 μM) were added. It was found from preliminary experiments that the contraction induced by KCl (20 mM) remained stable in a tonic state for at least 40 minutes. The same experiments were performed in the presence of a well-known inhibitor of guanylate cyclase: ODQ 1 μM, which was incubated in aorta preparations after confirmation of removal of the endothelium.
Analysis of the results. The vasorelaxing activity was evaluated as a percentage (%) relative to the contractile tone induced by 20 mM KCl. The pharmacodynamic efficacy parameter (Emax) corresponds to the maximum vasorelaxing effect induced by the molecule tested, expressed as percentage relative to the contractile tone induced by 20 mM KCl. When the limit concentration of 10 μM (the highest concentration administered) of the test compounds has not reached the maximum effect, the efficacy parameter (Emax) corresponds to the vasorelaxing effect induced by the limit concentration (expressed as percentage relative to the contractile tone induced by 20 mM KCl). The pharmacodynamic parameter of potency of the compounds was expressed as pIC50 calculated as the negative logarithm of the molar concentration of test compound that reduces the contractile tone induced by 20 mM KCl by half. […] The parameters of efficacy and potency were expressed as mean±standard error, for 5-10 experiments. The experimental data were analysed by the program GraphPad Prism 3.0.

Row | SMILES | melting point [°C] | IC50 [1] [nM] | Emax [2] [%]
1 | Cc1c(CCOCCO[N+](=O)[O-])cc(-c2ccc(S(C)(=O)=O)cc2)n1-c1cccc(F)c1 (as salt: nitrate) [Example 38, 2-[2-[2-(1-(3-Fluorophenyl)-2-methyl-5-(4-methylsulphonylphenyl)-1H-pyrrol-3-yl]ethoxy]ethyl Nitrate] | 94 to 97 | – | –
2 | Cc1c(CCOCCO[N+](=O)[O-])cc(-c2ccc(S(C)(=O)=O)cc2)n1-c1ccc(F)c(F)c1 (as salt: nitrate) [Example 39, 2-[2-[2-(1-(3,4-Difluorophenyl)-2-methyl-5-(4-methylsulphonylphenyl)-1H-pyrrol-3-yl]ethoxy]ethyl Nitrate] | 93 to 96 | – | –
3 | Cc1c(CCOCCCO[N+](=O)[O-])cc(-c2ccc(S(C)(=O)=O)cc2)n1-c1ccccc1 (as salt: nitrate) [Example 40, 3-[2-[2-(1-Phenyl-2-methyl-5-(4-methylsulphonylphenyl)-1H-pyrrol-3-yl)ethoxy]propyl Nitrate] | 131 to 133 | – | –
4 | Cc1c(CCOCCCO[N+](=O)[O-])cc(-c2ccc(S(C)(=O)=O)cc2)n1-c1ccc(F)cc1 (as salt: nitrate) [Example 41, 3-[2-[2-(1-(4-Fluorophenyl)-2-methyl-5-(4-methylsulphonylphenyl)-1H-pyrrol-3-yl)]ethoxy]propyl Nitrate] | 114 to 116 | – | –
5 | Cc1c(CCOCCCO[N+](=O)[O-])cc(-c2ccc(S(C)(=O)=O)cc2)n1-c1cccc(F)c1 (as salt: nitrate) [Example 42, 3-[2-(1-(3-Fluorophenyl)-2-methyl-5-(4-methylsulphonylphenyl)-1H-pyrrol-3-yl)ethoxy]propyl Nitrate] | 111 to 113 | – | –
6 | Cc1c(C(N)C(=O)OCCO)cc(-c2ccc(S(C)(=O)=O)cc2)n1-c1ccc(F)cc1 (racemic) [Example 16-II, (R,S)-2-(Hydroxy)ethyl-[2-amino-2-[1-(4-fluorophenyl)-2-methyl-5-(4-methylsulphonylphenyl)-pyrrol-3-yl]]-acetate] | 102 | – | –
7 | Cc1c(C(N)C(=O)OCCO)cc(-c2ccc(S(C)(=O)=O)cc2)n1-c1cccc(F)c1 (racemic) [Example 17-II, (R,S)-2-(Hydroxy)ethyl-[2-amino-2-[1-(3-fluorophenyl)-2-methyl-5-(4-methylsulphonylphenyl)-1H-pyrrol-3-yl]]-acetate] | 102 | – | –
8 | Cc1c(C(N)C(=O)OCCCO[N+](=O)[O-])cc(-c2ccc(S(C)(=O)=O)cc2)n1-c1cccc(F)c1 (racemic) [Example 19, (R,S)-3-(Nitrooxy)propyl-[2-amino-2-[1-(3-fluorophenyl)-2-methyl-5-(4-methylsulphonylphenyl)-1H-pyrrol-3-yl]]-acetate] | 117 | – | –
9 | Cc1c(C(N)C(=O)OCCCCO[N+](=O)[O-])cc(-c2ccc(S(C)(=O)=O)cc2)n1-c1cccc(F)c1 (racemic) [Example 21, (R,S)-4-(Nitrooxy)butyl-[2-amino-2-[1-(3-fluorophenyl)-2-methyl-5-(4-methylsulphonylphenyl)-1H-pyrrol-3-yl]]-acetate] | 110 | – | –
10 | Cc1c(CC(=O)OCCO)cc(-c2ccc(S(C)(=O)=O)cc2)n1-c1ccc(F)cc1 [Example 2-II, 2-Hydroxyethyl-[2-(1-(4-fluorophenyl)-2-methyl-5-(4-methylsulphonylphenyl)-1H-pyrrol-3-yl)]acetate] | 129 to 131 | 89 | –
11 | Cc1c(CC(=O)OCCO)cc(-c2ccc(S(C)(=O)=O)cc2)n1-c1cccc(F)c1 [Example 3-II] | 115 | 85 | –
12 | COc1ccc(-n2c(-c3ccc(S(C)(=O)=O)cc3)cc(CC(=O)OCCO)c2C)cc1 [Example 4-II, 2-(Hydroxy)ethyl-[1-(4-methoxyphenyl)-2-methyl-5-(4-methylsulphonylphenyl)-1H-pyrrol-3-yl]-acetate] | 105 | 1100 | –
13 | Cc1c(CC(=O)OCCCO[N+](=O)[O-])cc(-c2ccc(S(C)(=O)=O)cc2)n1-c1ccccc1 [Example 6] | 116 to 118 | – | –
14 | Cc1c(CC(=O)OCCCO[N+](=O)[O-])cc(-c2ccc(S(C)(=O)=O)cc2)n1-c1ccc(F)cc1 [Example 7, 3-(Nitrooxy)propyl 2-[1-(4-fluorophenyl)-2-methyl-5-(4-methylsulphonylphenyl)-1H-pyrrol-3-yl]acetate] | 126 to 128 | – | –
15 | Cc1c(CC(=O)OCCCCO[N+](=O)[O-])cc(-c2ccc(S(C)(=O)=O)cc2)n1-c1ccc(F)cc1 [Example 11, 4-(Nitrooxy)butyl-2-[1-(4-fluorophenyl)-2-methyl-5-(4-methylsulphonylphenyl)-1H-pyrrol-3-yl]acetate] | 102 to 104 | – | 40 ± 8
16 | COc1ccc(-n2c(-c3ccc(S(C)(=O)=O)cc3)cc(CC(=O)OCCCCO[N+](=O)[O-])c2C)cc1 [Example 13, 4-(Nitrooxy)butyl-2-[1-(4-methoxyphenyl)-2-methyl-5-(4-methylsulphonylphenyl)-1H-pyrrol-3-yl]acetate] | 109 | 550 | –
17 | Cc1c(CC(=O)NCCO)cc(-c2ccc(S(C)(=O)=O)cc2)n1-c1ccc(F)cc1 [Example 23-II, N-[(2-Hydroxy)ethyl]-2-[1-(4-fluorophenyl)-2-methyl-5-(4-methylsulphonylphenyl)-1H-pyrrol-3-yl]acetamide] | 99 | 300 | –
18 | Cc1c(CC(=O)NCCCO[N+](=O)[O-])cc(-c2ccc(S(C)(=O)=O)cc2)n1-c1ccc(F)cc1 [Example 26, N-[(3-Nitroxy)propyl]-2-[1-(4-fluorophenyl)-2-methyl-5-(4-methylsulphonylphenyl)-1H-pyrrol-3-yl]acetamide] | 127 | – | –
19 | Cc1c(CC(=O)NCCCO)cc(-c2ccc(S(C)(=O)=O)cc2)n1-c1ccc(F)cc1 [Example 26-II, N-[(3-Hydroxy)propyl]-2-[1-(4-fluorophenyl)-2-methyl-5-(4-methylsulphonylphenyl)-1H-pyrrol-3-yl]acetamide] | 105 | 68 | –
20 | Cc1c(CC(=O)NCCCO[N+](=O)[O-])cc(-c2ccc(S(C)(=O)=O)cc2)n1-c1cccc(F)c1 [Example 27, N-[(3-Nitroxy)propyl]-2-[1-(3-fluorophenyl)-2-methyl-5-(4-methylsulphonylphenyl)-1H-pyrrol-3-yl]acetamide] | 125 | – | –
21 | Cc1c(CC(=O)NCCCO)cc(-c2ccc(S(C)(=O)=O)cc2)n1-c1cccc(F)c1 [Example 27-II, N-[(3-Hydroxy)propyl]-2-[1-(3-fluorophenyl)-2-methyl-5-(4-methylsulphonylphenyl)-1H-pyrrol-3-yl]acetamide] | 102 | 14 | –
22 | Cc1c(CCOCCCO)cc(-c2ccc(S(C)(=O)=O)cc2)n1-c1ccc(F)cc1 [Example 41-II, 3-[2-[2-(1-(4-Fluorophenyl)-2-methyl-5-(4-methylsulphonylphenyl)-1H-pyrrol-3-yl)]ethoxy]propanol] | 100 to 102 | 940 | –
